Results: ChEMBL document CHEMBL4350972, “Design, synthesis and pharmacological evaluation of a novel mTOR-targeted anti-EV71 agent” (Eur J Med Chem, 2019)
In brackets after ≈: the same amount, converted by molar mass. Activity calls are given as the source filed them. The rule behind the calls is not given here.

Assays:
[1] = Cytotoxicity against human RD cells incubated for 4 days by CellTiter-Glo luminescence assay; format: cell-based
[2] = tested on: Enterovirus A71; test: Antiviral activity against Enterovirus A71 infected in human RD cells assessed as reduction in virus-induced cell death incubated for 4 days by CellTiter-Glo luminescence assay; format: functional, organism-based; settings: Enterovirus A, 96 h
[3] = molecular target: mTORC2 (Homo sapiens) (UniProt P42345+Q6R327+Q9BVC4+Q9BPZ7); test: Inhibition of mTORC2 in human RD cells assessed as reduction in Akt phosphorylation at Ser473 site at 20 uM incubated for 2 hrs in presence of insulin by Western blot analysis; format: cell-based
[4] = molecular target: mTORC1 (Homo sapiens) (UniProt P42345+Q8N122+Q9BVC4); test: Inhibition of mTORC1 in human RD cells assessed as reduction in P70S6K1 phosphorylation at Thr 389 site at 20 uM incubated for 2 hrs in presence of insulin by Western blot analysis; format: cell-based
[5] = Aqueous solubility of the compound; format: physicochemical
[6] = Ratio of aqueous solubility for Torin2 to aqueous solubility for test compound; format: physicochemical; settings: buffer

Row | inhibition [3] | inhibition [4] | solubility [5] | Ratio [6] | Compound | CC50 at 96 h [1] | IC50 [2]
1 |  |  |  |  | COC(=O)/C=C/c1ccc2ncc3oc(=O)n(-c4cccc(C(F)(F)F)c4)c3c2c1 | 72000 nM | 
2 |  |  |  |  | COc1cncc(-c2ccc3ncc4oc(=O)n(-c5cccc(C(F)(F)F)c5)c4c3c2)c1 | 68500 nM | 
3 | Active | Active |  |  | CCC(=O)Nc1ccc(-c2ccc3ncc4ccc(=O)n(-c5cccc(C(F)(F)F)c5)c4c3c2)cn1 | 40 nM | 27 nM
4 | Active | Active |  |  | O=C(Cc1ccccc1)Nc1ccc(-c2ccc3ncc4ccc(=O)n(-c5cccc(C(F)(F)F)c5)c4c3c2)cn1 | 740 nM | 560 nM
5 | Active | Active |  |  | O=C(Nc1ccc(-c2ccc3ncc4ccc(=O)n(-c5cccc(C(F)(F)F)c5)c4c3c2)cn1)OCc1ccccc1 | 1000 nM | 23700 nM
6 | Active | Active |  |  | O=c1ccc2cnc3ccc(-c4ccc(F)nc4)cc3c2n1-c1cccc(C(F)(F)F)c1 | 230 nM | 70 nM
7 | Active | Active |  |  | COc1ccc(-c2ccc3ncc4ccc(=O)n(-c5cccc(C(F)(F)F)c5)c4c3c2)cn1 | 130 nM | 40 nM
8 | Active | Active |  |  | Nc1cccc(Nc2ccc3ncc4ccc(=O)n(-c5cccc(C(F)(F)F)c5)c4c3c2)c1 | 7580 nM | 890 nM
9 | Active | Active |  |  | Nc1cccc(Nc2ccc3ncc4ccc(=O)n(-c5cccc(C(F)(F)F)c5)c4c3c2)n1 | 5190 nM | 2470 nM
10 | inactive | inactive |  |  | CC(=O)/C=C/c1cnc2ccc(-c3ccc(N)cc3)cc2c1Nc1cccc(C(F)(F)F)c1 | 5140 nM | 5140 nM
11 | Active | Active |  |  | CC(C)C(=O)Nc1ccc(-c2ccc3ncc4ccc(=O)n(-c5cccc(C(F)(F)F)c5)c4c3c2)cn1 | 460 nM | 820 nM
12 |  |  | 1.29 µg/mL (≈ 2.98 µM) |  | Nc1ccc(-c2ccc3ncc4ccc(=O)n(-c5cccc(C(F)(F)F)c5)c4c3c2)cn1 |  | 10 nM
13 |  | Active |  |  | CO[C@H]1C[C@@H]2CC[C@@H](C)[C@@](O)(O2)C(=O)C(=O)N2CCCC[C@H]2C(=O)O[C@H]([C@H](C)C[C@@H]2CC[C@@H](O)[C@H](OC)C2)CC(=O)[C@H](C)/C=C(\C)[C@@H](O)[C@@H](OC)C(=O)[C@H](C)C[C@H](C)/C=C/C=C/C=C/1C |  | 
14 | Active | Active |  | 5 | O=c1ccc2cnc3ccc(-c4cccnc4F)cc3c2n1-c1cccc(C(F)(F)F)c1 | 1230 nM | 59 nM
15 |  |  |  |  | CC(=O)/C=C/c1cnc2ccc(-c3ccc(F)nc3)cc2c1Nc1cccc(C(F)(F)F)c1 | 2230 nM | 
16 | inactive | inactive |  |  | NC(=O)NC/C=C/c1ccc2ncc3oc(=O)n(-c4cccc(C(F)(F)F)c4)c3c2c1 | 66600 nM | 48900 nM

Row | inhibition [3] | inhibition [4] | solubility [5] | Ratio [6] | Compound | CC50 at 96 h [1] | IC50 [2]
17 | Active | Active |  |  | CC(C)(C)OC(=O)Nc1ccc(-c2ccc3ncc4ccc(=O)n(-c5cccc(C(F)(F)F)c5)c4c3c2)cn1 | 690 nM | 2470 nM
18 | Active | Active |  |  | O=c1ccc2cnc3ccc(-c4ccc(N5CCCC5)nc4)cc3c2n1-c1cccc(C(F)(F)F)c1 | 1790 nM | 2470 nM
19 |  |  |  |  | COc1cncc(-c2ccc3ncc(/C=C/C(C)=O)c(Nc4cccc(C(F)(F)F)c4)c3c2)c1 | > 200000 nM | 
20 | inactive | inactive |  |  | Cc1ccc(-c2ccc3ncc4oc(=O)n(-c5cccc(C(F)(F)F)c5)c4c3c2)cn1 | 16900 nM | 4780 nM
21 |  |  |  |  | O=c1oc2cnc3ccc(-c4cnc5ccccc5c4)cc3c2n1-c1cccc(C(F)(F)F)c1 | 68900 nM | 
22 | Active | Active |  |  | CCCCC(=O)Nc1ccc(-c2ccc3ncc4ccc(=O)n(-c5cccc(C(F)(F)F)c5)c4c3c2)cn1 | 700 nM | 200 nM
23 |  |  |  |  | COc1ncccc1-c1ccc2ncc3ccc(=O)n(-c4cccc(C(F)(F)F)c4)c3c2c1 | > 200000 nM | 
24 |  | Active |  | 15 | CN1CCN(c2ccc(-c3ccc4ncc5ccc(=O)n(-c6cccc(C(F)(F)F)c6)c5c4c3)cn2)CC1 | 180 nM | 90 nM
25 | Active | Active |  |  | CN(C)c1ccc(-c2ccc3ncc4ccc(=O)n(-c5cccc(C(F)(F)F)c5)c4c3c2)cn1 | 170 nM | 270 nM
26 |  |  |  |  | CC(=O)/C=C/c1cnc2ccc(-c3cnc4ccccc4c3)cc2c1Nc1cccc(C(F)(F)F)c1 | 680 nM | 
27 |  |  |  |  | CC(=O)/C=C/c1cnc2ccc(-c3cccc(N)c3)cc2c1Nc1cccc(C(F)(F)F)c1 | > 200000 nM | 
28 |  | Active |  |  | O=C1Cc2cc(-c3ccc4ncc5ccc(=O)n(-c6cccc(C(F)(F)F)c6)c5c4c3)ccc2N1 | 10300 nM | 7400 nM
29 |  |  |  |  | N#C/C=C/c1ccc2ncc3oc(=O)n(-c4cccc(C(F)(F)F)c4)c3c2c1 | > 200000 nM | 
30 | Active | Active |  |  | O=c1ccc2cnc3ccc(-c4ccc(N5CCOCC5)nc4)cc3c2n1-c1cccc(C(F)(F)F)c1 | 2910 nM | 2630 nM
31 | Active | Active |  |  | CCCC(=O)Nc1ccc(-c2ccc3ncc4ccc(=O)n(-c5cccc(C(F)(F)F)c5)c4c3c2)cn1 | 750 nM | 170 nM

Row | Compound | inhibition [3] | inhibition [4] | solubility [5] | Ratio [6] | CC50 at 96 h [1] | IC50 [2]
32 | O=C(Nc1ccc(-c2ccc3ncc4ccc(=O)n(-c5cccc(C(F)(F)F)c5)c4c3c2)cn1)Oc1ccccc1 | Active | Active |  |  | 200 nM | 90 nM
